Source: US20210187085A1, “PHOSPHOLIPASE A2 RECEPTOR ANTIGENS AND THEIR MEDICAL USE” (The University of Manchester, priority 2017, published 2021)
“Also recorded” adds a separate entry of the source. Where a SMILES comes first, the peptide text is derived from it. Bridges are numbered along the chain shown (N, C = ends). Where no end group is shown, it is not given here.

Legend:
anti-PLA2R mouse 20 Ab [1] = assay: ProteOn SPR, candidate peptide mouse 20 antibody binding kinetics; settings: peptide immobilised on GLC chip, mouse 20 Ab 5-25 nM; for Ka: Langmuir 1:1
anti-PLA2R mouse 20 Ab [2] = assay: Slot blot analysis with mouse 20 Ab; assay type: binding; settings: for interaction with mouse 20 Ab in slot blot: 205 nm NanoDrop and ponceau S staining
Excerpt: Incorporating the 205 nm NanoDrop and ponceau S staining the assessment of the peptide epitope library was undertaken with the mouse 20 Ab.

[3] = system: human Nottingham patient autoAb; assay: PEPperCHIP peptide microarray substitution scan, phase 1; assay type: binding; settings: Nottingham patient autoAbs
anti-PLA2R Mouse 20 Ab [4] = assay: Kd 1/s
anti-PLA2R Mouse 20 Ab [5] = assay: Ka 1/Ms
mouse 20 Ab = assay: ELISA analysis of peptide epitope library; assay type: binding; settings: 1.5 ng of peptide immobilised, absorbance 450 nm
human anti-PLA2R autoAbs = assay: Slot blot analysis with human anti-PLA2R autoAbs; settings: non-reducing conditions, FIG. 1 D

| Compound | Kd (anti-PLA2R Mouse 20 Ab [4]) [s⁻¹] | Kd (anti-PLA2R mouse 20 Ab [1]) [nM] | Ka (anti-PLA2R mouse 20 Ab [1]) [M⁻¹ s⁻¹] | Ka (anti-PLA2R Mouse 20 Ab [5]) [M⁻¹ s⁻¹] | further results |
| --- | --- | --- | --- | --- | --- |
| Head to Tail cyclic: head to tail cyclic 28mer (SEQ ID NO: 74) (KGCFVIQSESLKKSIQAGKSVLTLENCK; head-to-tail cyclisation) [listing 2 of 2 here] |  | ~0.1 | 1.55e+06 |  | slot blot staining with human anti-PLA2R autoAbs (human anti-PLA2R autoAbs): stained positive; slot blot staining with anti-PLA2R mouse 20 Ab (anti-PLA2R mouse 20 Ab [2]; non-reducing conditions, FIG. 1 D): stained positive; slot blot intensity of interaction with mouse 20 Ab (anti-PLA2R mouse 20 Ab [2]; peptide epitope library): highest intensity; interaction with mouse 20 Ab in slot blot (anti-PLA2R mouse 20 Ab [2]; peptide epitope library, listed as head to tail 28mer): found to interact; also recorded: displayed association; association with mouse 20 Ab in ELISA (mouse 20 Ab): displayed association |
| PIDSESLKK [listing 2 of 2 here] |  | ~0.1 | 1.79e+06 |  |  |
| PIQSESLKK [listing 2 of 2 here] |  | ~0.1 | 107000 |  |  |
| SVLTLENCK [Peptide 2] | 5.32e-05 | ~0.1 | 1.43e+06 | 1.43e+06 |  |
| VIDSESLKK [listing 2 of 2 here] |  | ~0.1 | 1.86e+06 |  |  |
| VIQSESLKK [listing 2 of 2 here] |  | ~0.1 | 2.27e+06 |  |  |

Continued, in another order:

| Kd (anti-PLA2R Mouse 20 Ab [4]) [s⁻¹] | Compound | Kd (anti-PLA2R mouse 20 Ab [1]) [nM] | Ka (anti-PLA2R mouse 20 Ab [1]) [M⁻¹ s⁻¹] | Ka (anti-PLA2R Mouse 20 Ab [5]) [M⁻¹ s⁻¹] | further results |
| --- | --- | --- | --- | --- | --- |
| 0.000134 | CC[C@H](C)[C@@H]1NC(=O)[C@@H](NC(=O)[C@H](CO)NC(=O)[C@H](CCC(=O)O)NC(=O)[C@H](CO)NC(=O)[C@H](CCC(N)=O)NC(=O)[C@@H](NC(=O)[C@@H](N)C(C)C)[C@@H](C)CC)CSSC[C@@H](C(=O)O)NC(=O)[C@H](CC(N)=O)NC(=O)[C@H](CCC(=O)O)NC(=O)[C@H](CC(C)C)NC(=O)[C@H]([C@@H](C)O)NC(=O)[C@H](CC(C)C)NC(=O)[C@H](C(C)C)NC(=O)[C@H](CO)NC(=O)[C@H](CCCCN)NC(=O)CNC(=O)[C@H](C)NC(=O)[C@H](CCC(N)=O)NC1=O [20mer] (H-VIQSESCIQAGKSVLTLENC-OH; disulfide 7-20) | ~0.1 | 1.56e+06 | 1.56e+06 | interaction with mouse 20 Ab in slot blot (anti-PLA2R mouse 20 Ab [2]; peptide epitope library): little to no association; autoAb binding in substitution scan (in words) ([3]; listed as Peptide platform 2c): successfully interact; also recorded: successfully bound; autoAb binding in substitution scan (in words) ([3]; listed as Peptide platform 3c): successfully interact; also recorded: successfully bound; association with mouse 20 Ab in ELISA (mouse 20 Ab): little to no association |
| 9.4e-05 | Head to Tail cyclic: head to tail cyclic 28mer (SEQ ID NO: 74) (KGCFVIQSESLKKSIQAGKSVLTLENCK; head-to-tail cyclisation) [listing 1 of 2 here] |  |  | 1.55e+06 |  |
| 0.000143 | PIDSESLKK [listing 1 of 2 here] |  |  | 1.79e+06 |  |
| 7.5e-05 | PIQSESLKK [listing 1 of 2 here] |  |  | 107000 |  |
| 0.00014 | VIDSESLKK [listing 1 of 2 here] |  |  | 1.86e+06 |  |
| 0.000136 | VIQSESLKK [listing 1 of 2 here] |  |  | 2.27e+06 |  |
